# Structures can show the parent of a compound that is named as a salt.
# Biological target: Sphingosine 1-phosphate receptor 1 (Homo sapiens, UniProt P21453)
# Experiment: potentiators of S1P1 agonist response, dose response, cell-based, potentiator mode, 60K MLSMR set (AID 466)
# Settings: not given
# Sequence of Sphingosine 1-phosphate receptor 1 (P21453 whole entry): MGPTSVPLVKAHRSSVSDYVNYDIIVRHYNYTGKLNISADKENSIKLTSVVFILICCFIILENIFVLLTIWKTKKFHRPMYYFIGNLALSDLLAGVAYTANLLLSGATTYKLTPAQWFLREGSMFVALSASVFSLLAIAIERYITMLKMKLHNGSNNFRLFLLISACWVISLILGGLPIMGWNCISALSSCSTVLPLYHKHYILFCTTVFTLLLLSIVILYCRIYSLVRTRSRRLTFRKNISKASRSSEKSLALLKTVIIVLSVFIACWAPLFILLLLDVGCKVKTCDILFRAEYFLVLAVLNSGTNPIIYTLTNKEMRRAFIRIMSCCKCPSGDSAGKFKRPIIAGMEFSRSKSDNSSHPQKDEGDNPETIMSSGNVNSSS
row,EC50,SMILES
1,1.56 µM,"Cn1c(-c2c(N)n(C3CCCC3)c3nc4ccccc4nc23)nc2ccccc21 [1-cyclopentyl-3-(1-methyl-2-benzimidazolyl)-2-pyrrolo[3,2-b]quinoxalinamine]"
2,3.31 µM,C=CS(=O)(=O)c1ccc(Oc2ccc(S(=O)(=O)C=C)cc2)cc1 [1-ethenylsulfonyl-4-(4-ethenylsulfonylphenoxy)benzene]
3,4.14 µM,"O=C(c1ccccc1)C(CCC(CN1CCOCC1)C(=O)c1ccccc1)CN1CCOCC1 (stereo unspecified) [2,5-bis(4-morpholinylmethyl)-1,6-diphenylhexane-1,6-dione;hydrochloride]"
4,13.7 µM,"CCCCc1ccc(C2C(C#N)C(=N)SC(=N)C2C#N)s1 (stereo unspecified) [2,6-bis(azanyl)-4-(5-butylthiophen-2-yl)-4H-thiopyran-3,5-dicarbonitrile]"
5,> 95 µM,"COCCn1c(C)cc(C(=O)CSc2nc3ccccc3o2)c1C [2-(1,3-benzoxazol-2-ylsulfanyl)-1-[1-(2-methoxyethyl)-2,5-dimethyl-pyrrol-3-yl]ethanone]"
6,1.25 µM,"O=C(CSc1nc2ccccc2o1)Nc1ccc(N2CCOCC2)c(Cl)c1 [2-(1,3-benzoxazol-2-ylsulfanyl)-N-(3-chloranyl-4-morpholin-4-yl-phenyl)ethanamide]"
7,> 30 µM,"CC1CCc2nc(NC(=O)CSc3nc4ccccc4o3)sc2C1 (stereo unspecified) [2-(1,3-benzoxazol-2-ylsulfanyl)-N-(6-methyl-4,5,6,7-tetrahydro-1,3-benzothiazol-2-yl)acetamide]"
8,6.19 µM,"CCCCn1nnnc1SCC(=O)c1ccc(C)c(C)c1 [2-(1-Butyl-1H-tetrazol-5-ylsulfanyl)-1-(3,4-dimethyl-phenyl)-ethanone]"
9,1.59 µM,"CCC(C)c1ccc2oc(-c3ccc(NC(=O)Cn4cnc5c(=O)n(C)c(=O)n(C)c54)cc3)nc2c1 (stereo unspecified) [2-(2,6-diketo-1,3-dimethyl-purin-9-yl)-N-[4-(5-sec-butyl-1,3-benzoxazol-2-yl)phenyl]acetamide]"
10,> 95 µM,"Clc1ccc(OCc2nnc(-c3ccccc3Br)o2)c(Cl)c1 [2-(2-bromophenyl)-5-[(2,4-dichlorophenoxy)methyl]-1,3,4-oxadiazole]"
11,8.05 µM,CC(C)COC(=O)NCCOC(=O)Nc1cccc(Cl)c1 [2-(2-methylpropoxycarbonylamino)ethyl N-(3-chlorophenyl)carbamate]
12,9.83 µM,"O=S(=O)(CCSc1ccccn1)c1nc2ccccc2s1 [2-(2-pyridin-2-ylsulfanylethylsulfonyl)-1,3-benzothiazole]"
13,1.04 µM,"CCOc1ccc(-c2nnc(-c3ccco3)o2)cc1OCC [2-(3,4-Diethoxy-phenyl)-5-furan-2-yl-[1,3,4]oxadiazole]"
14,5.58 µM,"CCOc1ccc(-c2nnc(-c3cccs3)o2)cc1OCC [2-(3,4-Diethoxy-phenyl)-5-thiophen-2-yl-[1,3,4]oxadiazole]"
15,2.33 µM,"CCOc1ccc(-c2nnc(-c3cccnc3)o2)cc1OCC [2-(3,4-diethoxyphenyl)-5-(3-pyridinyl)-1,3,4-oxadiazole]"
16,> 30 µM,"Cn1c(C(=O)N2CCc3ccccc3C2)cc2oc3ccccc3c21 [2-(3,4-dihydroisoquinolin-2(1H)-ylcarbonyl)-1-methyl-1H-[1]benzofuro[3,2-b]pyrrole]"

row,EC50,SMILES
1,9.09 µM,"COc1ccc(-c2nc3cc(NC(=O)Cc4ccc(OC)c(OC)c4)ccc3o2)cc1 [2-(3,4-dimethoxyphenyl)-N-[2-(4-methoxyphenyl)-1,3-benzoxazol-5-yl]acetamide]"
2,2.14 µM,"COc1ccccc1Oc1ccc2c(c1)C(=O)N(c1cccc(O)c1)C2=O [2-(3-hydroxyphenyl)-5-(2-methoxyphenoxy)isoindole-1,3-dione]"
3,2.55 µM,"O=C(CSC1=NCCS1)Nc1ccnc2ccccc12 [2-(4,5-dihydro-1,3-thiazol-2-ylsulfanyl)-N-quinolin-4-yl-ethanamide]"
4,9.76 µM,N#Cc1nc(-c2ccc(OCc3ccccc3)cc2)oc1NCc1cccnc1 [2-(4-benzoxyphenyl)-5-(3-pyridylmethylamino)oxazole-4-carbonitrile]
5,3.01 µM,CN(C)c1oc(-c2ccc(OCc3ccccc3)cc2)nc1C#N [2-(4-benzoxyphenyl)-5-(dimethylamino)oxazole-4-carbonitrile]
6,0.151 µM,"COc1ccccc1Oc1ccc2c(c1)C(=O)N(c1ccc(O)cc1)C2=O [2-(4-hydroxyphenyl)-5-(2-methoxyphenoxy)isoindole-1,3-dione]"
7,4.86 µM,"O=C(CSc1nnc(Cn2nnc3ccccc32)o1)N(Cc1ccc(F)cc1)c1ccccc1 [2-(5-Benzotriazol-1-ylmethyl-[1,3,4]oxadiazol-2-ylsulfanyl)-N-(4-fluoro-benzyl)-N-phenyl-acetamide]"
8,6.9 µM,COC(=O)c1ccc2c(=O)n(C3CCCCC3)c(SCC#N)nc2c1 [2-(cyanomethylthio)-3-cyclohexyl-4-keto-quinazoline-7-carboxylic acid methyl ester]
9,> 30 µM,"CCOC(=O)c1sc2nc(NC(=O)C3CCCCC3)sc2c1C [2-(cyclohexanecarbonylamino)-6-methyl-thieno[2,3-d]thiazole-5-carboxylic acid ethyl ester]"
10,5.39 µM,"CCCCNc1cc(C)nc(NCc2ccccc2)n1 [2-N-benzyl-4-N-butyl-6-methylpyrimidine-2,4-diamine]"
11,9.83 µM,COc1ccc(-n2nnnc2S(=O)(=O)CC(=O)N2CCCCC2)cc1 [2-[1-(4-methoxyphenyl)tetrazol-5-yl]sulfonyl-1-piperidin-1-ylethanone]
12,5.57 µM,"Cc1cc(C(=O)CSc2nc3ccccc3c(=O)n2C)c(C)n1Cc1ccc2c(c1)OCO2 [2-[2-[1-(1,3-benzodioxol-5-ylmethyl)-2,5-dimethyl-pyrrol-3-yl]-2-oxidanylidene-ethyl]sulfanyl-3-methyl-quinazolin-4-one]"
13,3.12 µM,"CCOC(=O)CN1C(=O)C(C)(C)Oc2ccc(C(=O)Nc3ccccc3OC)cc21 [2-[3-keto-6-[(2-methoxyphenyl)carbamoyl]-2,2-dimethyl-1,4-benzoxazin-4-yl]acetic acid ethyl ester]"
14,6.29 µM,"Cc1cc(N2CCN(c3nc4ccccc4s3)CC2)n2ncnc2n1 [2-[4-(5-methyl-[1,2,4]triazolo[1,5-a]pyrimidin-7-yl)-1-piperazinyl]-1,3-benzothiazole]"
15,1.72 µM,"Cc1ccc(C(C)C)c(OCc2ccc(-c3nnco3)cc2)c1 [2-[4-[(2-isopropyl-5-methyl-phenoxy)methyl]phenyl]-1,3,4-oxadiazole]"
16,> 10 µM,"O=S1(=O)C=C(Sc2nc3ccccc3s2)c2ccccc21 [2-[(1,1-dioxido-1-benzothien-3-yl)thio]-1,3-benzothiazole]"

row,SMILES,EC50
1,"O=C1C2CCCN2C(c2cccnc2)N1c1cccc(Cl)c1 (stereo unspecified) [2-(3-chlorophenyl)-3-(3-pyridinyl)-5,6,7,7a-tetrahydro-3H-pyrrolo[1,2-c]imidazol-1-one]",> 95 µM

# Same assay, conditions: inactive by the depositor's call
row,EC50,SMILES
1,10.5 µM,"Cc1nc(C)c(C(=O)Nc2ccc(Oc3ccccc3)cc2)o1 [2,4-dimethyl-N-(4-phenoxyphenyl)-1,3-oxazole-5-carboxamide]"
2,11.6 µM,"COc1ccc(-n2c(C)cc(C(=O)COC(=O)Cn3cnc4ccccc43)c2C)cc1 [2-(1-benzimidazolyl)acetic acid [2-[1-(4-methoxyphenyl)-2,5-dimethyl-3-pyrrolyl]-2-oxoethyl] ester]"
3,18.7 µM,"CCOC(=O)c1ccc2nc(NC(=O)c3ccco3)sc2c1 [2-(2-furoylamino)-1,3-benzothiazole-6-carboxylic acid ethyl ester]"
4,45.2 µM,"O=C(CSCC(=O)N1CCCCC1)Nc1nc(-c2cccs2)cs1 [2-(2-oxidanylidene-2-piperidin-1-yl-ethyl)sulfanyl-N-(4-thiophen-2-yl-1,3-thiazol-2-yl)ethanamide]"
5,15 µM,"Cc1cc(C)n(-c2nc3ccccc3c(=O)n2OCCOc2ccccc2)n1 [2-(3,5-dimethyl-1-pyrazolyl)-3-(2-phenoxyethoxy)-4-quinazolinone]"
6,10.8 µM,"O=C(CSc1ncnc2c1oc1ccccc12)N1CCCc2ccccc21 [2-(4-benzofuro[3,2-d]pyrimidinylthio)-1-(3,4-dihydro-2H-quinolin-1-yl)ethanone]"
7,16.6 µM,"Clc1ccc(-c2nc3nc4ccccc4nc3n2Cc2ccco2)cc1 [2-(4-chlorophenyl)-3-(2-furanylmethyl)imidazo[4,5-b]quinoxaline]"
8,66.5 µM,"CCCOc1ccc(-c2nnc(-c3ccncc3)o2)cc1 [2-(4-propoxyphenyl)-5-(4-pyridyl)-1,3,4-oxadiazole]"
9,20.4 µM,"c1ccc(CSc2nnc(-c3cccs3)o2)cc1 [2-(benzylthio)-5-(2-thienyl)-1,3,4-oxadiazole]"
10,14.8 µM,"CCOc1nc(-c2ccccc2)ccc1-c1noc(-c2ccco2)n1 [2-Ethoxy-3-(5-furan-2-yl-[1,2,4]oxadiazol-3-yl)-6-phenyl-pyridine]"
11,12.9 µM,"CN1CCN(C(=O)CSc2nc(-c3cccs3)cc(-c3cccs3)c2C#N)CC1 [2-[2-(4-methylpiperazin-1-yl)-2-oxidanylidene-ethyl]sulfanyl-4,6-dithiophen-2-yl-pyridine-3-carbonitrile]"
12,21.4 µM,"Cc1cc(C(=O)CN2C(=O)c3ccccc3C2=O)c(C)n1Cc1cccs1 [2-[2-[2,5-dimethyl-1-(2-thenyl)pyrrol-3-yl]-2-keto-ethyl]isoindoline-1,3-quinone]"
13,16.5 µM,CCOC(=O)Cc1csc(NC(=O)c2ccc(Br)s2)n1 [2-[2-[(5-bromothiophene-2-carbonyl)amino]thiazol-4-yl]acetic acid ethyl ester]
14,14.6 µM,"CC1CCN(S(=O)(=O)c2ccc3c(c2)oc(=O)n3CC(=O)NCc2ccc3c(c2)OCO3)CC1 [2-[2-keto-6-(4-methylpiperidino)sulfonyl-1,3-benzoxazol-3-yl]-N-piperonyl-acetamide]"
15,48.2 µM,COc1ccc(OCCCSc2ncccn2)cc1 [2-[3-(4-methoxyphenoxy)propylsulfanyl]pyrimidine]
16,10.1 µM,"CCOC(=O)c1sc2nc(NC(=O)C(C)(C)C)sc2c1C [2-[(2,2-dimethyl-1-oxopropyl)amino]-6-methyl-5-thieno[2,3-d]thiazolecarboxylic acid ethyl ester]"
17,38.5 µM,"Clc1ccc(CSc2nnc(-c3ccncc3)o2)c(Cl)c1 [2-[(2,4-dichlorobenzyl)thio]-5-(4-pyridyl)-1,3,4-oxadiazole]"

row,SMILES,EC50
1,"CCn1nc(-c2cccs2)nc2c(=O)n(C)c(=O)nc1-2 [1-ethyl-6-methyl-3-thiophen-2-yl-pyrimido[5,4-e][1,2,4]triazine-5,7-dione]",31.8 µM
